In assay [1] the test system is Oocyte. The assay can be described thus: Inhibition of rat alpha6/alpha3 E34M mutant beta4 nAChR expressed in Stage V-VI Xenopus laevis Oocytes assessed as inhibition of acetylcholine-induced current by measuring recovery at 10 uM preincubated with compound for 5 mins followed by washout in presence of acetylcholine by electrophysiological recording. Type of assay: cell-based. Also on record: scale not given: the % may be the effect or the level left.

For assay [2], the species on record is Rattus norvegicus. In words: Selectivity index, ratio of IC50 for rat alpha6/alpha3 D152A mutant beta4 nAChR expressed in Stage V-VI Xenopus laevis oocytes to IC50 for rat alpha6/alpha3beta4 nAChR expressed in Stage V-VI Xenopus laevis Oocytes by electrophysiological recording. It is filed as cell-based.
The species entered for assay [3] is Rattus norvegicus. The assay can be described thus: Selectivity index, ratio of IC50 for rat alpha6/alpha3beta4 1166S mutant nAChR expressed in Stage V-VI Xenopus laevis oocytes to IC50 for rat alpha6/alpha3beta4 nAChR expressed in Stage V-VI Xenopus laevis Oocytes by electrophysiological recording. Type of assay: cell-based.
Assay [4] addresses Neuronal acetylcholine receptor; alpha2/beta2 (Rattus norvegicus, UniProt P12389+P12390). In words: Inhibition of rat alpha2/beta2 nAChR expressed in Stage V-VI Xenopus laevis Oocytes assessed as inhibition of acetylcholine-induced current in presence of acetylcholine by electrophysiological recording. It is filed as cell-based, Oocyte.
Assay [5] concerns the target T1, Nicotinic acetylcholine receptor alpha6/alpha3/beta4 (Rattus norvegicus) (UniProt P04757+P12392+P43143). In words: Inhibition of rat alpha6/alpha3beta4 nAChR expressed in Stage V-VI Xenopus laevis Oocytes assessed as inhibition of acetylcholine-induced current at 10 uM in presence of acetylcholine by electrophysiological recording. Type of assay: cell-based. Conditions: Oocyte.

Assay [6] deals with T1, Nicotinic acetylcholine receptor alpha6/alpha3/beta4 (Rattus norvegicus). The assay can be described thus: Inhibition of rat alpha6/alpha3beta4 nAChR expressed in Stage V-VI Xenopus laevis Oocytes assessed as acetylcholine-induced current response at 100 nM in presence of 100 uM acetylcholine by electrophysiological recording relative to control. Type of assay: cell-based. Conditions: Oocyte.

Assay [7] is filed under the species Rattus norvegicus. In words: Selectivity index, ratio of IC50 for rat alpha6/alpha3 E195A mutant beta4 nAChR expressed in Stage V-VI Xenopus laevis oocytes to IC50 for rat alpha6/alpha3beta4 nAChR expressed in Stage V-VI Xenopus laevis Oocytes by electrophysiological recording. It is filed as cell-based.
Assay [8] relates to Oocyte. In words: Inhibition of rat alpha6/alpha3 E195A mutant beta4 nAChR expressed in Stage V-VI Xenopus laevis Oocytes assessed as inhibition of acetylcholine-induced current by measuring recovery time at 10 uM preincubated with compound for 5 mins followed by washout in presence of acetylcholine by electrophysiological recording. Type of assay: cell-based.
Assay [9] concerns the target Neuronal acetylcholine receptor; alpha2/beta4 (Rattus norvegicus, UniProt P12389+P12392). The assay can be described thus: Inhibition of rat alpha2/beta4 nAChR expressed in Stage V-VI Xenopus laevis Oocytes assessed as inhibition of acetylcholine-induced current in presence of acetylcholine by electrophysiological recording. Type of assay: cell-based, Oocyte.
Assay [10] concerns Oocyte. The assay can be described thus: Inhibition of rat alpha6/alpha3 D152A mutant beta4 nAChR expressed in Stage V-VI Xenopus laevis Oocytes assessed as inhibition of acetylcholine-induced current by measuring recovery time at 10 uM preincubated with compound for 5 mins followed by washout in presence of acetylcholine by electrophysiological recording. It is filed as cell-based.

Assay [11] has as its target Neuronal acetylcholine receptor; alpha3/beta4 (Rattus norvegicus, UniProt P04757+P12392). In words: Inhibition of rat alpha3/beta4 nAChR expressed in Stage V-VI Xenopus laevis Oocytes assessed as inhibition of acetylcholine-induced current in presence of acetylcholine by electrophysiological recording. Type of assay: cell-based, Oocyte.
For assay [12], the target named is Nicotinic acetylcholine receptor alpha1/beta1/epsilon/delta (Mus musculus) (UniProt P04756+P09690+P02716+P20782). In words: Inhibition of mouse alpha1/beta1deltaepsilon nAChR expressed in Stage V-VI Xenopus laevis Oocytes assessed as inhibition of acetylcholine-induced current at 10 uM in presence of acetylcholine by electrophysiological recording relative to control. It is filed as cell-based. Conditions: Oocyte.

Assay [13] in a line: Inhibition of rat alpha6/alpha3beta4 I166S mutant nAChR expressed in Stage V-VI Xenopus laevis Oocytes assessed as inhibition of acetylcholine-induced current in presence of acetylcholine by electrophysiological recording. It is filed as cell-based. Conditions: Oocyte.
Assay [14] deals with Nicotinic acetylcholine receptor alpha9/alpha10 (Rattus norvegicus, UniProt P43144+Q9JLB5). In words: Inhibition of rat alpha9/alpha10 nAChR expressed in Stage V-VI Xenopus laevis Oocytes assessed as inhibition of acetylcholine-induced current in presence of acetylcholine by electrophysiological recording. It is filed as cell-based, Oocyte.
Assay [15] addresses Nicotinic acetylcholine receptor alpha6/alpha3/beta2/beta3 (Rattus norvegicus, UniProt P04757+P12390+P12391+P43143). The assay can be described thus: Inhibition of rat alpha6/alpha3beta2beta3 nAChR expressed in Stage V-VI Xenopus laevis Oocytes assessed as inhibition of acetylcholine-induced current in presence of acetylcholine by electrophysiological recording. Type of assay: cell-based, Oocyte.

Assay [16] has as its target Neuronal acetylcholine receptor; alpha4/beta2 (Rattus norvegicus, UniProt P09483+P12390). In words: Inhibition of rat alpha4/beta2 nAChR expressed in Stage V-VI Xenopus laevis Oocytes assessed as inhibition of acetylcholine-induced current in presence of acetylcholine by electrophysiological recording. Type of assay: cell-based, Oocyte.
Assay [17] has as its target Nicotinic acetylcholine receptor alpha6/alpha3/beta2/beta3 (Rattus norvegicus) (UniProt P04757+P12390+P12391+P43143). In words: Inhibition of rat alpha6/alpha3beta2beta3 nAChR expressed in Stage V-VI Xenopus laevis Oocytes assessed as inhibition of acetylcholine-induced current at 10 uM in presence of acetylcholine by electrophysiological recording. Type of assay: cell-based. Conditions: Oocyte.

The target in assay [18] is Neuronal acetylcholine receptor; alpha2/beta4 (Rattus norvegicus) (UniProt P12389+P12392). In words: Inhibition of rat alpha2/beta4 nAChR expressed in Stage V-VI Xenopus laevis Oocytes assessed as inhibition of acetylcholine-induced current at 10 uM in presence of acetylcholine by electrophysiological recording relative to control. Conditions: Oocyte. It is filed as cell-based.

Assay [19] addresses Neuronal acetylcholine receptor; alpha3/beta2 (Rattus norvegicus, UniProt P04757+P12390). In words: Inhibition of rat alpha3/beta2 nAChR expressed in Stage V-VI Xenopus laevis Oocytes assessed as inhibition of acetylcholine-induced current in presence of acetylcholine by electrophysiological recording. It is filed as cell-based, Oocyte.
For assay [20], the target named is Nicotinic acetylcholine receptor alpha9/alpha10 (Rattus norvegicus) (UniProt P43144+Q9JLB5). In words: Inhibition of rat alpha9/alpha10 nAChR expressed in Stage V-VI Xenopus laevis Oocytes assessed as inhibition of acetylcholine-induced current at 10 uM in presence of acetylcholine by electrophysiological recording relative to control. Conditions: Oocyte. Type of assay: cell-based.

Assay [21] is filed under the species Rattus norvegicus. The assay can be described thus: Selectivity index, ratio of IC50 for rat alpha6/alpha3beta4 D161A mutant nAChR expressed in Stage V-VI Xenopus laevis oocytes to IC50 for rat alpha6/alpha3beta4 nAChR expressed in Stage V-VI Xenopus laevis Oocytes by electrophysiological recording. Type of assay: cell-based.
Assay [22] has as its target Neuronal acetylcholine receptor; alpha2/beta2 (Rattus norvegicus) (UniProt P12389+P12390). In words: Inhibition of rat alpha2/beta2 nAChR expressed in Stage V-VI Xenopus laevis Oocytes assessed as inhibition of acetylcholine-induced current at 10 uM in presence of acetylcholine by electrophysiological recording relative to control. Type of assay: cell-based. Conditions: Oocyte.

Assay [23] concerns Oocyte. In words: Inhibition of rat alpha6/alpha3 T59K mutant beta4 nAChR expressed in Stage V-VI Xenopus laevis Oocytes assessed as inhibition of acetylcholine-induced current by measuring recovery time at 10 uM preincubated with compound for 5 mins followed by washout in presence of acetylcholine by electrophysiological recording. Type of assay: cell-based.

The IC50 is the concentration at which inhibition is half-maximal. As a reminder, the inhibition is the change of the read-out against control, counted positive when it falls.

The structures appear in SMILES notation. Activity calls are given as the source filed them. The calls are words filed in the database; no cut-off is given here. Peptide text beside a SMILES is read from it.

Chain of Neuronal acetylcholine receptor; alpha3/beta2 (P04757 whole entry): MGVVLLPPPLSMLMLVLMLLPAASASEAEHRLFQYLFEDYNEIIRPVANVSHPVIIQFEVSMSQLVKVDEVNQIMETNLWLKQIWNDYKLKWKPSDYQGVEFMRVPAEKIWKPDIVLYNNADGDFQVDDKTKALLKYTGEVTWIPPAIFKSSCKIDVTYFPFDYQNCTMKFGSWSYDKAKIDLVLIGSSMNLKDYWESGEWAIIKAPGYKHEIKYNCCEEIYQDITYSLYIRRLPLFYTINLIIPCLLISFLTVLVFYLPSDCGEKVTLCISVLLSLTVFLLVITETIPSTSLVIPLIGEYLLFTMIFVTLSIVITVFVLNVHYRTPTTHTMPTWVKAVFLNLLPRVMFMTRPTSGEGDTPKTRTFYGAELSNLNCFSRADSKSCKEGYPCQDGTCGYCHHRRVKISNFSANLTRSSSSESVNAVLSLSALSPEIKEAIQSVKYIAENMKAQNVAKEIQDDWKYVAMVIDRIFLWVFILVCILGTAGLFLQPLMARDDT
Chain of Neuronal acetylcholine receptor; alpha3/beta2 (P12390 whole entry): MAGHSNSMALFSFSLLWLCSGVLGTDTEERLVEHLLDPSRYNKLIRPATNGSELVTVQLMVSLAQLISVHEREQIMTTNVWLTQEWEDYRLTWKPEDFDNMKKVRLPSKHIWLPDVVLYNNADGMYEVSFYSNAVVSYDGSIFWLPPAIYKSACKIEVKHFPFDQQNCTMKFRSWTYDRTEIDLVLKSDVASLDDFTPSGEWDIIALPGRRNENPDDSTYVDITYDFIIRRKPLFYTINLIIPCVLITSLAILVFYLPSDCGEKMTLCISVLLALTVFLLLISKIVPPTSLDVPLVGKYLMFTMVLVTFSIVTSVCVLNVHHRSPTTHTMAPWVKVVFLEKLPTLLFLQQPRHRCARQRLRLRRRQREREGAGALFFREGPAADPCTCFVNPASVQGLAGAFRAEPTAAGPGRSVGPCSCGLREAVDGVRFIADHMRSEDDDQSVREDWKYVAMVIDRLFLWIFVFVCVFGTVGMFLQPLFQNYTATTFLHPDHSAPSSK
Chain of Nicotinic acetylcholine receptor alpha6/alpha3/beta2/beta3 (P04757 whole entry): as the sequence (P04757 whole entry) above
Chain of Nicotinic acetylcholine receptor alpha6/alpha3/beta2/beta3 (P12390 whole entry): as the sequence (P12390 whole entry) above
Chain of Nicotinic acetylcholine receptor alpha6/alpha3/beta2/beta3 (P12391 whole entry): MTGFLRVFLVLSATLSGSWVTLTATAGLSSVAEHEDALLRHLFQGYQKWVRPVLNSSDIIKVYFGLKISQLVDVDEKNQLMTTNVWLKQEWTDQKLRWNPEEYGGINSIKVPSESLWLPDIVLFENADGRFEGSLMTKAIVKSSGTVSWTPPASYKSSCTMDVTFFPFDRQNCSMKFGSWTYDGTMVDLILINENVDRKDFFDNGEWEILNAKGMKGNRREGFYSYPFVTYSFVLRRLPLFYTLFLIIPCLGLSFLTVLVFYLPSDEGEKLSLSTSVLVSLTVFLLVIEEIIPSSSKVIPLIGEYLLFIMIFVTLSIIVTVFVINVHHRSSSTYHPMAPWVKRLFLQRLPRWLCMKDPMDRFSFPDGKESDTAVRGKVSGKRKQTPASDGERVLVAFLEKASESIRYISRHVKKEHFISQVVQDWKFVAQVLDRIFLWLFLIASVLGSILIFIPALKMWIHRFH
Chain of Nicotinic acetylcholine receptor alpha6/alpha3/beta2/beta3 (P43143 whole entry): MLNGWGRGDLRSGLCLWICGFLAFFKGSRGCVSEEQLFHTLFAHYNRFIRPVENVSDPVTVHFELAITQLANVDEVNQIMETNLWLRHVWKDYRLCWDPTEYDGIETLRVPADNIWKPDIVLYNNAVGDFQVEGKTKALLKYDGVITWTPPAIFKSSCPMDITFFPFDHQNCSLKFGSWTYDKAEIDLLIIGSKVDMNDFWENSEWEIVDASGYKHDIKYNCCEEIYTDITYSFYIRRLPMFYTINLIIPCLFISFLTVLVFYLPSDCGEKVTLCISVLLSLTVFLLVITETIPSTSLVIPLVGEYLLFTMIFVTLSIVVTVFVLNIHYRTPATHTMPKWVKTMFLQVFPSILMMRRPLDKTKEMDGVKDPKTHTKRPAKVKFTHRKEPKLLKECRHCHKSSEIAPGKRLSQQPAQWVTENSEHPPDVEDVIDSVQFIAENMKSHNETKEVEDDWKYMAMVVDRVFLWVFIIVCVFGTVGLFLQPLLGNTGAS
Chain of Neuronal acetylcholine receptor; alpha3/beta4 (P04757 whole entry): as the sequence (P04757 whole entry) above
Chain of Neuronal acetylcholine receptor; alpha3/beta4 (P12392 whole entry): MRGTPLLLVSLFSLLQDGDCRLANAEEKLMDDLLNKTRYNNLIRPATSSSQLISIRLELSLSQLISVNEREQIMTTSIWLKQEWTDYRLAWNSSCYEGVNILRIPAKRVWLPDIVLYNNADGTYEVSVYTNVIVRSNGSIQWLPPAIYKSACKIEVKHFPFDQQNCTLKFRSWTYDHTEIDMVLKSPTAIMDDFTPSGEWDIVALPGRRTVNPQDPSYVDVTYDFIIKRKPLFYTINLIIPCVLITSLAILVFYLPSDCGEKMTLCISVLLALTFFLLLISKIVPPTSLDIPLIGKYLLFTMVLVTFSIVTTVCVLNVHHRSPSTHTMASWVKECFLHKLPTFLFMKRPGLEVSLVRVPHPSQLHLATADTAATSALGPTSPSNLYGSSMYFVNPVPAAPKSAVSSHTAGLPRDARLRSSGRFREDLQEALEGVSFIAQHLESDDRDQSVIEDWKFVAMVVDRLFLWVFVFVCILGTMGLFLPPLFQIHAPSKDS
Chain of Neuronal acetylcholine receptor; alpha2/beta4 (P12389 whole entry): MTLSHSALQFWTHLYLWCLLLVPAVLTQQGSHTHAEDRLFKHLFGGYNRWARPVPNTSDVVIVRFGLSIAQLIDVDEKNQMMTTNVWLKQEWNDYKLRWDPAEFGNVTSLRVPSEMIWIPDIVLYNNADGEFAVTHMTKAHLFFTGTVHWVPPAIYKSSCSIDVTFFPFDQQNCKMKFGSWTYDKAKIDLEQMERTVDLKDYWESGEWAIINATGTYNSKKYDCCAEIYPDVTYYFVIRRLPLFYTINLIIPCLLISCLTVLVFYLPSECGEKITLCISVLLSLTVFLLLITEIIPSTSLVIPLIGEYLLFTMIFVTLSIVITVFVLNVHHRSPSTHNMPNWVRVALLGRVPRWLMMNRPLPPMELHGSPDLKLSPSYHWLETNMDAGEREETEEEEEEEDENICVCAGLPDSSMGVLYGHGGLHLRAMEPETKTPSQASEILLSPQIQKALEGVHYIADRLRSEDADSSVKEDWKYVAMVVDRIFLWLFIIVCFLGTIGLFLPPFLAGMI
Chain of Neuronal acetylcholine receptor; alpha2/beta4 (P12392 whole entry): as the sequence (P12392 whole entry) above

On to `CC(C)[C@H](NC(=O)[C@@H]1CCCN1C(=O)[C@H](CC(N)=O)NC(=O)[C@H](C)NC(=O)[C@H](CS)NC(=O)[C@H](CS)NC(=O)[C@@H](N)CCCNC(=N)N)C(=O)N[C@@H](CS)C(=O)N[C@@H](CC(N)=O)C(=O)NCC(=O)N[C@@H](CCCCN)C(=O)N[C@@H](Cc1cnc[nH]1)C(=O)N[C@@H](CS)C(N)=O` (H-RCCANPVCNGKHC-NH2), for which, in the assay with Oocyte [1], the Activity stood at 70%. Also, the Ratio IC50 was 24.7 in the assay filed under Rattus norvegicus [2], 2.7 in the assay listed under Rattus norvegicus [3], 50.5 in the assay filed under Rattus norvegicus [7] and 3.3 in the assay listed under Rattus norvegicus [21]. Moreover, the IC50 in assay [4] is more than 10 µM; in [9], more than 10 µM; in assay [11], more than 10 µM; in [13], 0.0508 µM; in [14], more than 10 µM; in [15], more than 10 µM. The IC50 in [16] and in assay [19] was more than 10 µM each time. Besides, in assay [5], the inhibition entry is “Active”. Besides, the inhibition in [6] was 85.5%; in [12] it was less than 50%; in [18] it was less than 50%; in assay [20] it was less than 50%; in [22] it was less than 50%. The figures for the TIME with Oocyte [8], in the assay with Oocyte [10] and with Oocyte [23] were 0.0167 h, 0.0667 h and 0.0333 h, respectively. In addition, the inhibition result in assay [17] was “inactive”.
